Data as given in the supplement of paper PMC10307832.

Legend:
Assay in all cases: relative viability (nuclei count vs DMSO), 5 days (fraction); higher = more cells survive
Gemcitabine + Linsitinib = compound: Nc1ccn([C@@H]2O[C@H](CO)[C@@H](O)C2(F)F)c(=O)n1 [Gemcitabine] + C[C@]1(O)C[C@@H](c2nc(-c3ccc4ccc(-c5ccccc5)nc4c3)c3c(N)nccn32)C1 [Linsitinib] (partner 1 µM)
Procedure, shortened: (§1)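 Lung cancer cell lines in 1536-well plates got either a single drug or a fixed anchor-drug dose together with five library-drug doses (not always all listed) in √10 steps, by pin tool, on the day after seeding. Nuclei were counted after 5 days, and relative viability is the treated-to-vehicle ratio of nuclei counts. Values are medians of duplicate plates.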

Gemcitabine + Pemetrexed = compound: Nc1ccn([C@@H]2O[C@H](CO)[C@@H](O)C2(F)F)c(=O)n1 [Gemcitabine] + Nc1nc2[nH]cc(CCc3ccc(C(=O)N[C@@H](CCC(=O)O)C(=O)O)cc3)c2c(=O)[nH]1 [Pemetrexed] (partner 0.2 µM)
Procedure, shortened: as §1

Gemcitabine + Navitoclax = compound: Nc1ccn([C@@H]2O[C@H](CO)[C@@H](O)C2(F)F)c(=O)n1 [Gemcitabine] + CC1(C)CCC(c2ccc(Cl)cc2)=C(CN2CCN(c3ccc(C(=O)NS(=O)(=O)c4ccc(N[C@H](CCN5CCOCC5)CSc5ccccc5)c(S(=O)(=O)C(F)(F)F)c4)cc3)CC2)C1 [Navitoclax] (partner 0.5 µM)
Procedure, shortened: as §1

Gemcitabine + Vorinostat = compound: Nc1ccn([C@@H]2O[C@H](CO)[C@@H](O)C2(F)F)c(=O)n1 [Gemcitabine] + O=C(CCCCCCC(=O)Nc1ccccc1)NO [Vorinostat] (partner 1 µM)
Procedure, shortened: as §1

With PC-3 [JPC-3] the relative viability (Gemcitabine + Linsitinib; first compound 0.001 µM) was 1.03, the relative viability (Gemcitabine + Linsitinib; first compound 0.003162 µM) was 0.77 and the relative viability (Gemcitabine + Linsitinib; first compound 0.01 µM) was 0.692. The relative viability (Gemcitabine + Linsitinib; first compound 0.03162 µM) was 0.342, the relative viability (Gemcitabine + Linsitinib; first compound 0.1 µM) was 0.309 and the relative viability (Gemcitabine + Pemetrexed; first compound 0.001 µM) was 1.23. The relative viability (Gemcitabine + Pemetrexed; first compound 0.003162 µM) was 0.566, the relative viability (Gemcitabine + Pemetrexed; first compound 0.01 µM) was 0.434 and the relative viability (Gemcitabine + Pemetrexed; first compound 0.03162 µM) was 0.414. The relative viability (Gemcitabine + Pemetrexed; first compound 0.1 µM) was 0.31, the relative viability (Gemcitabine + Navitoclax; first compound 0.001 µM) was 0.81 and the relative viability (Gemcitabine + Navitoclax; first compound 0.003162 µM) was 0.688. For the same cell line, the relative viability (Gemcitabine + Navitoclax; first compound 0.01 µM) was 0.504, the relative viability (Gemcitabine + Navitoclax; first compound 0.03162 µM) was 0.448 and the relative viability (Gemcitabine + Navitoclax; first compound 0.1 µM) was 0.281. The relative viability (Gemcitabine + Vorinostat; first compound 0.001 µM) was 0.659, the relative viability (Gemcitabine + Vorinostat; first compound 0.003162 µM) was 0.536 and the relative viability (Gemcitabine + Vorinostat; first compound 0.01 µM) was 0.36. It also gave a relative viability (Gemcitabine + Vorinostat; first compound 0.03162 µM) of 0.338 and a relative viability (Gemcitabine + Vorinostat; first compound 0.1 µM) of 0.366.
Work on PC-14 yielded a relative viability (Gemcitabine + Linsitinib; first compound 0.001 µM) of 0.936, a relative viability (Gemcitabine + Linsitinib; first compound 0.003162 µM) of 0.6 and a relative viability (Gemcitabine + Linsitinib; first compound 0.01 µM) of 0.366. It also gave a relative viability (Gemcitabine + Linsitinib; first compound 0.03162 µM) of 0.147, a relative viability (Gemcitabine + Linsitinib; first compound 0.1 µM) of 0.0669 and a relative viability (Gemcitabine + Pemetrexed; first compound 0.001 µM) of 0.132. The relative viability (Gemcitabine + Pemetrexed; first compound 0.003162 µM) was 0.168, the relative viability (Gemcitabine + Pemetrexed; first compound 0.01 µM) was 0.0563 and the relative viability (Gemcitabine + Pemetrexed; first compound 0.03162 µM) was 0.0461. It also gave a relative viability (Gemcitabine + Pemetrexed; first compound 0.1 µM) of 0.0413, a relative viability (Gemcitabine + Navitoclax; first compound 0.001 µM) of 0.986 and a relative viability (Gemcitabine + Navitoclax; first compound 0.003162 µM) of 0.813. The relative viability (Gemcitabine + Navitoclax; first compound 0.01 µM) was 0.619, the relative viability (Gemcitabine + Navitoclax; first compound 0.03162 µM) was 0.035 and the relative viability (Gemcitabine + Navitoclax; first compound 0.1 µM) was 0.0244. It also gave a relative viability (Gemcitabine + Vorinostat; first compound 0.001 µM) of 0.82, a relative viability (Gemcitabine + Vorinostat; first compound 0.003162 µM) of 0.165 and a relative viability (Gemcitabine + Vorinostat; first compound 0.01 µM) of 0.0458. The relative viability (Gemcitabine + Vorinostat; first compound 0.03162 µM) was 0.0558 and the relative viability (Gemcitabine + Vorinostat; first compound 0.1 µM) was 0.0381.
RERF-LC-KJ showed a relative viability (Gemcitabine + Linsitinib; first compound 0.001 µM) of 0.856, a relative viability (Gemcitabine + Linsitinib; first compound 0.003162 µM) of 0.939 and a relative viability (Gemcitabine + Linsitinib; first compound 0.01 µM) of 0.821. The relative viability (Gemcitabine + Linsitinib; first compound 0.03162 µM) was 0.739, the relative viability (Gemcitabine + Linsitinib; first compound 0.1 µM) was 0.296 and the relative viability (Gemcitabine + Pemetrexed; first compound 0.001 µM) was 0.5. For the same cell line, the relative viability (Gemcitabine + Pemetrexed; first compound 0.003162 µM) was 0.485, the relative viability (Gemcitabine + Pemetrexed; first compound 0.01 µM) was 0.459 and the relative viability (Gemcitabine + Pemetrexed; first compound 0.03162 µM) was 0.357. For the same cell line, the relative viability (Gemcitabine + Pemetrexed; first compound 0.1 µM) was 0.263, the relative viability (Gemcitabine + Navitoclax; first compound 0.001 µM) was 1.05 and the relative viability (Gemcitabine + Navitoclax; first compound 0.003162 µM) was 1.26. For the same cell line, the relative viability (Gemcitabine + Navitoclax; first compound 0.01 µM) was 0.872, the relative viability (Gemcitabine + Navitoclax; first compound 0.03162 µM) was 0.224 and the relative viability (Gemcitabine + Navitoclax; first compound 0.1 µM) was 0.227. The relative viability (Gemcitabine + Vorinostat; first compound 0.001 µM) was 0.661, the relative viability (Gemcitabine + Vorinostat; first compound 0.003162 µM) was 0.682 and the relative viability (Gemcitabine + Vorinostat; first compound 0.01 µM) was 0.709. For the same cell line, the relative viability (Gemcitabine + Vorinostat; first compound 0.03162 µM) was 0.452 and the relative viability (Gemcitabine + Vorinostat; first compound 0.1 µM) was 0.246.
Cell Line SK-LU-1 has a relative viability (Gemcitabine + Linsitinib; first compound 0.001 µM) of 1.11, a relative viability (Gemcitabine + Linsitinib; first compound 0.003162 µM) of 0.51 and a relative viability (Gemcitabine + Linsitinib; first compound 0.01 µM) of 0.245. The relative viability (Gemcitabine + Linsitinib; first compound 0.03162 µM) was 0.211, the relative viability (Gemcitabine + Linsitinib; first compound 0.1 µM) was 0.219 and the relative viability (Gemcitabine + Pemetrexed; first compound 0.001 µM) was 1.01. For the same cell line, the relative viability (Gemcitabine + Pemetrexed; first compound 0.003162 µM) was 0.434, the relative viability (Gemcitabine + Pemetrexed; first compound 0.01 µM) was 0.252 and the relative viability (Gemcitabine + Pemetrexed; first compound 0.03162 µM) was 0.2. It also gave a relative viability (Gemcitabine + Pemetrexed; first compound 0.1 µM) of 0.237, a relative viability (Gemcitabine + Navitoclax; first compound 0.001 µM) of 0.526 and a relative viability (Gemcitabine + Navitoclax; first compound 0.003162 µM) of 0.224. It also gave a relative viability (Gemcitabine + Navitoclax; first compound 0.01 µM) of 0.0818, a relative viability (Gemcitabine + Navitoclax; first compound 0.03162 µM) of 0.117 and a relative viability (Gemcitabine + Navitoclax; first compound 0.1 µM) of 0.118. For the same cell line, the relative viability (Gemcitabine + Vorinostat; first compound 0.001 µM) was 0.753, the relative viability (Gemcitabine + Vorinostat; first compound 0.003162 µM) was 0.339 and the relative viability (Gemcitabine + Vorinostat; first compound 0.01 µM) was 0.267. The relative viability (Gemcitabine + Vorinostat; first compound 0.03162 µM) was 0.251 and the relative viability (Gemcitabine + Vorinostat; first compound 0.1 µM) was 0.252.
In the case of SK-MES-1, the relative viability (Gemcitabine + Linsitinib; first compound 0.001 µM) is reported as 1.07, the relative viability (Gemcitabine + Linsitinib; first compound 0.003162 µM) is reported as 0.555 and the relative viability (Gemcitabine + Linsitinib; first compound 0.01 µM) is reported as 0.292. For the same cell line, the relative viability (Gemcitabine + Linsitinib; first compound 0.03162 µM) was 0.197, the relative viability (Gemcitabine + Linsitinib; first compound 0.1 µM) was 0.18 and the relative viability (Gemcitabine + Pemetrexed; first compound 0.001 µM) was 0.804. For the same cell line, the relative viability (Gemcitabine + Pemetrexed; first compound 0.003162 µM) was 0.271, the relative viability (Gemcitabine + Pemetrexed; first compound 0.01 µM) was 0.2 and the relative viability (Gemcitabine + Pemetrexed; first compound 0.03162 µM) was 0.201. The relative viability (Gemcitabine + Pemetrexed; first compound 0.1 µM) was 0.173, the relative viability (Gemcitabine + Navitoclax; first compound 0.001 µM) was 0.929 and the relative viability (Gemcitabine + Navitoclax; first compound 0.003162 µM) was 0.723. For the same cell line, the relative viability (Gemcitabine + Navitoclax; first compound 0.01 µM) was 0.158, the relative viability (Gemcitabine + Navitoclax; first compound 0.03162 µM) was 0.0905 and the relative viability (Gemcitabine + Navitoclax; first compound 0.1 µM) was 0.077. It also gave a relative viability (Gemcitabine + Vorinostat; first compound 0.001 µM) of 0.839, a relative viability (Gemcitabine + Vorinostat; first compound 0.003162 µM) of 0.254 and a relative viability (Gemcitabine + Vorinostat; first compound 0.01 µM) of 0.181. The relative viability (Gemcitabine + Vorinostat; first compound 0.03162 µM) was 0.185 and the relative viability (Gemcitabine + Vorinostat; first compound 0.1 µM) was 0.178.
SW 1573 showed a relative viability (Gemcitabine + Linsitinib; first compound 0.001 µM) of 0.904, a relative viability (Gemcitabine + Linsitinib; first compound 0.003162 µM) of 0.726 and a relative viability (Gemcitabine + Linsitinib; first compound 0.01 µM) of 0.148. The relative viability (Gemcitabine + Linsitinib; first compound 0.03162 µM) was 0.127, the relative viability (Gemcitabine + Linsitinib; first compound 0.1 µM) was 0.0847 and the relative viability (Gemcitabine + Pemetrexed; first compound 0.001 µM) was 0.876. For the same cell line, the relative viability (Gemcitabine + Pemetrexed; first compound 0.003162 µM) was 0.732, the relative viability (Gemcitabine + Pemetrexed; first compound 0.01 µM) was 0.0969 and the relative viability (Gemcitabine + Pemetrexed; first compound 0.03162 µM) was 0.0574. It also gave a relative viability (Gemcitabine + Pemetrexed; first compound 0.1 µM) of 0.0459, a relative viability (Gemcitabine + Navitoclax; first compound 0.001 µM) of 1.18 and a relative viability (Gemcitabine + Navitoclax; first compound 0.003162 µM) of 0.986. For the same cell line, the relative viability (Gemcitabine + Navitoclax; first compound 0.01 µM) was 0.0907, the relative viability (Gemcitabine + Navitoclax; first compound 0.03162 µM) was 0.0747 and the relative viability (Gemcitabine + Navitoclax; first compound 0.1 µM) was 0.0361. For the same cell line, the relative viability (Gemcitabine + Vorinostat; first compound 0.001 µM) was 0.75, the relative viability (Gemcitabine + Vorinostat; first compound 0.003162 µM) was 0.591 and the relative viability (Gemcitabine + Vorinostat; first compound 0.01 µM) was 0.122. For the same cell line, the relative viability (Gemcitabine + Vorinostat; first compound 0.03162 µM) was 0.0661 and the relative viability (Gemcitabine + Vorinostat; first compound 0.1 µM) was 0.0393.
In the case of UMC-11, the relative viability (Gemcitabine + Linsitinib; first compound 0.001 µM) is reported as 0.993, the relative viability (Gemcitabine + Linsitinib; first compound 0.003162 µM) is reported as 1.03 and the relative viability (Gemcitabine + Linsitinib; first compound 0.01 µM) is reported as 0.963. The relative viability (Gemcitabine + Linsitinib; first compound 0.03162 µM) was 0.956, the relative viability (Gemcitabine + Linsitinib; first compound 0.1 µM) was 0.382 and the relative viability (Gemcitabine + Pemetrexed; first compound 0.001 µM) was 0.814. It also gave a relative viability (Gemcitabine + Pemetrexed; first compound 0.003162 µM) of 0.769, a relative viability (Gemcitabine + Pemetrexed; first compound 0.01 µM) of 0.747 and a relative viability (Gemcitabine + Pemetrexed; first compound 0.03162 µM) of 0.676. The relative viability (Gemcitabine + Pemetrexed; first compound 0.1 µM) was 0.403, the relative viability (Gemcitabine + Navitoclax; first compound 0.001 µM) was 0.376 and the relative viability (Gemcitabine + Navitoclax; first compound 0.003162 µM) was 0.309. It also gave a relative viability (Gemcitabine + Navitoclax; first compound 0.01 µM) of 0.291, a relative viability (Gemcitabine + Navitoclax; first compound 0.03162 µM) of 0.21 and a relative viability (Gemcitabine + Navitoclax; first compound 0.1 µM) of 0.118. For the same cell line, the relative viability (Gemcitabine + Vorinostat; first compound 0.001 µM) was 0.339, the relative viability (Gemcitabine + Vorinostat; first compound 0.003162 µM) was 0.505 and the relative viability (Gemcitabine + Vorinostat; first compound 0.01 µM) was 0.425. The relative viability (Gemcitabine + Vorinostat; first compound 0.03162 µM) was 0.256 and the relative viability (Gemcitabine + Vorinostat; first compound 0.1 µM) was 0.152.
